Like-named read-outs stand apart in the source and are kept apart here.
Tests used:
[1] = target: Rhesus PDE2A3 (Macaca mulatta, UniProt B3VTJ2); experiment: PDE2 fluorescence polarization (IMAP FP) inhibition assay, rhesus enzyme; type: biochemical, rhesus macaque
Procedure: (§1) The activity of the compounds in accordance with the present invention as PDE2 inhibitors may be readily determined using a fluorescence polarization (FP) methodology (Huang, W., et al., J. Biomol Screen, 2002, 7: 215).
In a typical experiment the PDE2 inhibitory activity of the compounds of the present invention was determined in accordance with the following experimental method. Rhesus PDE2A3 was amplified from rhesus macaque brain cDNA (Biochain Institute, Hayward, Calif.) using primers based on human PDE2A sequence (accession NM_002599.3) where the forward primer containing a Kozak consensus was 5′-[…]-3′ and the reverse primer was 5′-[…]-3′. Amplification with Easy-A High-Fidelity PCR cloning enzyme (Stratagene, La Jolla, Calif.) was 95° C. for 2 minutes followed by thirty three cycles of 95° C. for 40 seconds, 52° C. for 30 seconds, and 72° C. for 2 minutes 48 seconds. Final extension was 72° C. for 7 minutes. The PCR product was TA cloned into pcDNA3.3-TOPO (Invitrogen, Carlsbad, Calif.) according to standard protocol. A consensus sequence was developed from multiple clones and then deposited into GenBank (EU812167). AD293 cells (Stratagene, La Jolla, Calif.) with 70-80% confluency were transiently transfected with rhesus PDE2A3/pcDNA3.3-TOPO using Lipofectamine 2000 according to manufacturer specifications (Invitrogen, Carlsbad, Calif.). Cells were harvested 48 hours post-transfection and lysed by sonication (setting 3, 10×5 sec pulses) in a buffer containing 20 mM HEPES pH 7.4, 1 mM EDTA and Complete Protease Inhibitor Cocktail Tablets (Roche, Indianapolis, Ind.). Lysate was collected by centrifugation at 75,000×g for 20 minutes at 4° C. and supernatant utilized for evaluation of PDE2 activity. The fluorescence polarization assay for cyclic nucleotide phosphodiesterases was performed using an IMAP® FP kit supplied by Molecular Devices, Sunnyvale, Calif. (product # R8139). […] Assays were performed at room temperature in 384-well microtiter plates with an incubation volume of 20.2 μL. Solutions of test compounds were prepared in DMSO and serially diluted with DMSO to yield 8 μL of each of 10 solutions differing by 3-fold in concentration, at 32 serial dilutions per plate. […] 0% of inhibition is determined by using DMSO (1% final concentrations).
A Labcyte Echo 555 (Labcyte, Sunnyvale, Calif.) is used to dispense 200 nL from each well of the titration plate to the 384 well assay plate. Ten microliters of a solution of enzyme (1/2000 final dilution from aliquots; sufficient to produce 20% substrate conversion) was added to the assay plate. Next 10 uL of a separate solution of the substrate FAM-labeled cAMP (50 nM final concentration product # R7506 from Molecular Devices) and the activator cGMP (1 uM final concentration), prepared in the assay buffer (10 mM Tris HCl, pH 7.2, 10 mM MgCl2, 0.05% NaN3 0.01% Tween-20, and 1 mM DTT) was added to the assay plate and shaken to mix. The reaction is allowed to proceed at room temperature for 60 minutes. A binding solution is then made from the kit components, comprised of 80% Solution A, 20% Solution B and binding reagent at a volume of 1/600 the total binding solution. The enzymatic reaction is stopped by addition of 60 μL of the binding solution to each well of the assay plates and the plates are sealed and shaken for 30 seconds. The plate was incubated at room temperature for at least one hour prior to determining the fluorescence polarization (FP). The parallel and perpendicular fluorescence of each well of the plate was measured using a Tecan Genios Pro plate reader (Tecan, Switzerland) or Perkin Elmer EnVision™ plate reader (Waltham, Mass.). Fluorescence polarization (mP) was calculated from the parallel (S) and perpendicular (P) fluorescence of each sample well and the analogous values for the median control well, containing only substrate (So and Po), using the following equation: Polarization (mP)=1000*(S/So−P/Po)/(S/So+P/Po).

[2] = target: human PDE2A1 (Homo sapiens (Human), UniProt O00408); experiment: PDE2 fluorescence polarization (IMAP FP) inhibition assay, human enzyme; type: biochemical
human PDE2A1, sequence (O00408 other isoform, or with tags, fused parts or gaps): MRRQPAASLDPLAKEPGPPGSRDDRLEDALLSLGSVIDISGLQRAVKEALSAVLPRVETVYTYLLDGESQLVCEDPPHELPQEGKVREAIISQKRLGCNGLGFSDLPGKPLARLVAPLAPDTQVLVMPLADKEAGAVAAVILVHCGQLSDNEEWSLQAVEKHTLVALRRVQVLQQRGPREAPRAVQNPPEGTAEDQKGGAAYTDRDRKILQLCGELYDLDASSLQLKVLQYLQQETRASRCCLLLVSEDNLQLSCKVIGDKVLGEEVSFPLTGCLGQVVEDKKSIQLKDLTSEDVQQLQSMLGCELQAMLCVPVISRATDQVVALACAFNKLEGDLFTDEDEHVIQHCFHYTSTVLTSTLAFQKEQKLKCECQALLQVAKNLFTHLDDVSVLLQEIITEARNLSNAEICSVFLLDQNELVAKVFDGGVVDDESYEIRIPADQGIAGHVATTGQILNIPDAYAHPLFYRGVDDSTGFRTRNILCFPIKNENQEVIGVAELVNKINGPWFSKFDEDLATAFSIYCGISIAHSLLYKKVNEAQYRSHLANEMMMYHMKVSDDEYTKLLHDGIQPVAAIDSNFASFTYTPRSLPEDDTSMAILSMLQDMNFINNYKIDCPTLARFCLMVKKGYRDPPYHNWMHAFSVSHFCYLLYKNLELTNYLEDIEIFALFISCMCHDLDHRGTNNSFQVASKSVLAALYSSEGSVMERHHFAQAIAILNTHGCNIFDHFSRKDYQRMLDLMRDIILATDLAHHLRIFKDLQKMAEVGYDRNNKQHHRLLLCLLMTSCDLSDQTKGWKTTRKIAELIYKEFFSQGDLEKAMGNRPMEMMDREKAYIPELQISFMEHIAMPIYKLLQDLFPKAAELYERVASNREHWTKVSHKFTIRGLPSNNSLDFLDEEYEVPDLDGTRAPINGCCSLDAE
Procedure: as §1
Selectivity for PDE2, as compared to other PDE families, was assessed using the IMAPR technology. Human PDE10A2 enzyme was prepared from cytosolic fractions of transiently transfected HEK cells. All other PDE's were GST Tag human enzyme expressed in insect cells and were obtained from BPS Bioscience (San Diego, Calif.): PDE1A (Cat#60010), human PDE2A1(Cat#60020), PDE3A (Cat#60030), PDE4A1A (Cat#60040), PDE5A1 (Cat#60050), PDE6C (Cat#60060), PDE7A (Cat#60070), PDE8A1 (Cat#60080), PDE9A2 (Cat#60090), PDE11A4 (Cat#60110).
Assays for PDE 1 through 11 were performed in parallel at room temperature in 384-well microtiter plates with an incubation volume of 20.2 μL. Solutions of test compounds were prepared in DMSO and serially diluted with DMSO to yield 30 μL of each of ten solutions differing by 3-fold in concentration, at 32 serial dilutions per plate. […] A Labcyte POD 810 (Labcyte, Sunnyvale, Calif.) was used to dispense 200 nL from each well of the titration plate to make eleven copies of the assay plate for each titration, one copy for each PDE enzyme. A solution of each enzyme (dilution from aliquots, sufficient to produce 20% substrate conversion) and a separate solution of FAM-labeled cAMP or FAM-labeled cGMP from Molecular Devices (Sunnyvale, Calif., product # R7506 or cGMP#R7508), at a final concentration of 50 nM were made in the assay buffer (10 mM Tris HCl, pH 7.2, 10 mM MgCl2, 0.05% NaN3 0.01% Tween-20, and 1 mM DTT). Note that the substrate for PDE2 is 50 nM FAM cAMP containing 1000 nM of cGMP. The enzyme and the substrate were then added to the assay plates in two consecutive additions of 10 μL and then shaken to mix. The reaction was allowed to proceed at room temperature for 60 minutes. A binding solution was then made from the kit components, comprised of 80% Solution A, 20% Solution B and binding reagent at a volume of 1/600 the total binding solution. The enzymatic reaction was stopped by addition of 60 μL of the binding solution to each well of the assay plate. The plates were sealed and shaken for 10 seconds. The plates were incubated at room temperature for one hour, then the parallel and perpendicular fluorescence was measured using a Tecan Genios Pro plate reader (Tecan, Switzerland). The apparent inhibition constants for the compounds against all 11 PDE's was determined from the parallel and perpendicular fluorescent readings as described for PDE10 FP assay using the following apparent KM values for each enzyme and substrate combination: PDE1A (FAM cGMP) 70 nM, human PDE2A1 (FAM cAMP) 10,000 nM, PDE3A (FAM cAMP) 50 nM, PDE4A1A (FAM cAMP) 1500 nM, PDE5A1 (FAM cGMP) 400 nM, PDE6C (FAM cGMP) 700 nM, PDE7A (FAM cAMP) 150 nM, PDE8A1 (FAM cAMP) 50 nM, PDE9A2 (FAM cGMP) 60 nM, […] (FAM cAMP) 150 nM, PDE11A4 (FAM cAMP) 1000 nM. The intrinsic PDE2 inhibitory activity of a compound which may be used in accordance with the present invention may be determined by these assays. […]

[3] = LabB, read-out: rhPDE2 Ki (nM) LabB
[4] = LabB, read-out: hPDE2 Ki (nM) LabB
[5] = LabA, read-out: rhPDE2 Ki (nM) LabA
[6] = LabA, read-out: hPDE2 Ki (nM) LabA

Rhesus PDE2A3, sequence (B3VTJ2 1-941): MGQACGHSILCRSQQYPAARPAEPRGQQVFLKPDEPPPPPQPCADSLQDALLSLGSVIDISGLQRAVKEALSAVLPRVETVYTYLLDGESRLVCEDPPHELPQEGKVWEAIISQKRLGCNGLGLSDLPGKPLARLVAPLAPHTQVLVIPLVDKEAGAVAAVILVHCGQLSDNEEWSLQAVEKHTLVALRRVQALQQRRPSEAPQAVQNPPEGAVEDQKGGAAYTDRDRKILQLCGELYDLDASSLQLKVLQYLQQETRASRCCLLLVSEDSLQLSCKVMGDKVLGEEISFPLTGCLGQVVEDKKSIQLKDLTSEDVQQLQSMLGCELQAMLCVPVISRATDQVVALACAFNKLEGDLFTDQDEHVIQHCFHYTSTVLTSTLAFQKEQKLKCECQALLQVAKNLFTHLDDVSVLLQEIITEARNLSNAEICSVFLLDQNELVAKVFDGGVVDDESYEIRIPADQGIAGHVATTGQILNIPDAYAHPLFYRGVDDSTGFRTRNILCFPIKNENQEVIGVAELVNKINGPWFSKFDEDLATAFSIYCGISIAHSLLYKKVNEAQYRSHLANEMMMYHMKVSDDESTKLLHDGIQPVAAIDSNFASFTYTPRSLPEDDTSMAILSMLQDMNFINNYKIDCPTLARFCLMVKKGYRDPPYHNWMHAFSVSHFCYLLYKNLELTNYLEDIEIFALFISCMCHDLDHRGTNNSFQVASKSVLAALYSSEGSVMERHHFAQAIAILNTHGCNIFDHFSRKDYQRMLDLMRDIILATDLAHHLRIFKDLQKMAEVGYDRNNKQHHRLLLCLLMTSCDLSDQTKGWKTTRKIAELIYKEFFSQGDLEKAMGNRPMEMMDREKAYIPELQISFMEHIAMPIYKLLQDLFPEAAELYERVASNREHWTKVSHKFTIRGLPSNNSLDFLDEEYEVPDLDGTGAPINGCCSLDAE

SMILES	Ki [1, 3] [nM]	Ki [2, 4] [nM]	Ki [1, 5] [nM]	Ki [2, 6] [nM]
Cc1nc(-c2nnc([C@H](C)c3ccc(C(F)(F)F)cc3F)s2)cc(=O)[nH]1 (single isomer, unassigned) [Example 5]	19	18	–	–
Cc1nc(-c2nnc([C@H](C)c3ccc(C(F)(F)F)cc3)s2)cc(=O)[nH]1 (single isomer, unassigned) [Example 7]	57	62	21	13
Cc1nc(-c2nnc([C@H](C)c3ccc(C(F)(F)F)cc3)o2)cc(=O)[nH]1 (single isomer, unassigned) [Example 9]	159	–	86	79
Cc1nc(-c2ncc(C(C)c3ccc(C(F)(F)F)cc3)o2)cc(=O)[nH]1 (stereo not shown) [Example 8, 2-Methyl-6-(5-(1-(4-(trifluoromethyl)phenyl)ethyl)oxazol-2-yl)pyrimidin-4(3H)-one]	–	–	352	403

Further lines, results first:

Ki [1, 3] [nM]	Ki [2, 4] [nM]	Ki [1, 5] [nM]	Ki [2, 6] [nM]	SMILES
0.4	0.4	0.2	–	COc1ccc(Cc2nc(-c3cn(C(C)c4ccc(C(F)(F)F)cc4F)cn3)cc(=O)[nH]2)cc1OC (single isomer, unassigned) [Example 19, (R)- or (S)-2-(3,4-dimethoxy-benzyl)-6-(1-(1-(2-fluoro-4-(trifluoromethyl)phenyl)ethyl)-1H-imidazol-4-yl)pyrimidin-4(3H)-one]
–	–	2.3	1.4	COc1ccc(Cc2nc(-c3cn(C(C)c4ccc(C(F)(F)F)cc4F)cn3)cc(=O)[nH]2)cc1OC (single isomer, unassigned) [Example 18, (R)- or (S)-2-(3,4-dimethoxy-benzyl)-6-(1-(1-(2-fluoro-4-(trifluoromethyl)phenyl)ethyl)-1H-imidazol-4-yl)pyrimidin-4(3H)-one]

Reference: US10195201B2, “Heteroaryl-pyrimidinone compounds as PDE2 inhibitors” (Merck Sharp & Dohme Corp., priority 2015, dated 2019)
